Source: PMC3348334 (Bioorganic & medicinal chemistry letters, 2012)

System: COX
Experiment: COX activity inhibition at single concentration
Type: biochemical, human
Settings: at 100 μM

SMILES: O=C(O)c1cccc(Nc2ccc([N+](=O)[O-])c3ccccc23)c1 [Compound 2, 3-((4-nitronaphthalen-1-yl)amino)benzoic acid]
- inhibition of COX activity: no significant inhibition
